# Assay results as given in patent US11091501B2, “Heterocyclic compounds as RSV inhibitors” (Enanta Pharmaceuticals, Inc., priority 2017, dated 2021).
# pEC50: −log10 of the molar value.
# Tested on: Human RSV-A (“Long” strain)
# Assay: RSV in vitro cytoprotection assay (CPE, ATPlite) in HEp-2 cells
# Type: cell-based
# Details: human respiratory syncytial virus, 96 h; HEp-2 cells, 4-day incubation, ATPlite readout; read-out: Human RSV-A (“Long” strain) EC50
# From the text: RSV is a single stranded negative sense RNA virus that causes respiratory tract infections which can be dangerous to infants, the elderly, and immunosuppressed individuals. Currently there is no vaccine, and therapeutic options are both costly and of limited effectiveness. These approved treatments are Ribavirin, and Palivizumab/Synagis (a monoclonal antibody). RSV has two genotypes, A and B, which differ primarily in the structure of the virus' surface “G” attachment protein. Our current primary screen focuses on RSV-A and uses an in vitro cytoprotection assay where compounds are added in 2-fold dilutions to cells which are then subjected to fully replicative viral particles. Cell viability is measured several days later along with separate measurements of compound cytotoxicity. This report focuses on the results of our most recent screening of compounds.
# HEp-2 cells, (originally derived from tumors grown in irradiated-cortisonised weanling rats that had been injected with epidermoid carcinoma tissue from a person's larynx, but later found to be indistinguishable from HeLa cells by PCR DNA analysis), were used for the culturing of genotype A, “Long” strain RSV. Flasks were inoculated with RSV and viral stocks were collected once cytopathic effect (CPE) was greater than 90%. Viral stocks in 25% sucrose media were snap frozen using liquid nitrogen to increase viral stability. Viral stock titers were quantified by tissue culture infectious dose 50% (TCID50) using 8,000 cells per well and 3-fold viral dilutions across a 96-well plate, cultured for 4 days.
# Following extensive parameter testing, the final assay is run as follows: HEp-2 cells are seeded into the inner 60 wells of a 96-well plate at 8,000 cells per well in a volume of 50 μL using Growth Media (DMEM without phenol red, 1% L-Glut, 1% Penn/Strep, 1% nonessential amino acids, 10% FBS). 2-Fold serial dilutions of control and test compounds are added to the wells in duplicate in a total volume of 25 μL. Viral stock is then added to the wells in a volume of […] the total volume of each well to 100 μL. Each 96-well plate has a control column of 6 wells with cells and virus but no compound (negative control, max CPE), a column with cells but no compound or virus (positive control, minimum CPE), and a column with no cells or virus or compound (background plate/reagent control). The control wells with cells but no virus are given an additional 25 uL of growth media containing an equal quantity of sucrose as those wells receiving the viral stock in order to keep consistent in media and volume conditions. The outer wells of the plate are filled with 125 μL of growth media to act as a thermal and evaporative moat around the test wells. Following a 4-day incubation period, the plates are read using ATPlite (50 uL added per well), which quantifies the amount of ATP (a measure of cell health) present in each well. Assay plates are read using the Envision luminometer. In parallel, cytotoxicity is examined on an additional 96-well plate treated in an identical manner, but substituting the 25 μL of viral stock for 25 μL of growth media. […] EC50 ranges are as follows: A<0.01 μM; B 0.01-0.05 μM; C>0.05 μM.
row,pEC50,Structure (SMILES)
1,7.30 to 8.00,O=C(Nc1ccc(C(=O)N2CCc3cc(-c4nc5cccc(Cl)c5[nH]4)sc3-c3ccc(F)cc32)cc1)c1cc(F)cnc1N1CC2(CCOCC2)C1 [Example 44]
2,7.30 to 8.00,O=C(Nc1c(F)cccc1F)c1cc2c(s1)-c1ccc(F)cc1N(C(=O)c1ccc(NC(=O)c3cccnc3N3C[C@@H]4C[C@H]3CO4)cc1)CC2 [Example 48]
3,< 7.30,CC1(C)CCN(c2ncccc2C(=O)Nc2ccc(C(=O)N3CCc4cc(C(=O)Nc5c(F)cccc5F)sc4-c4ccc(F)cc43)cc2)CCS1(=O)=O [Example 49]
4,< 7.30,O=C(Nc1c(F)cccc1F)c1cc2c(s1)-c1ccc(F)cc1N(C(=O)c1ccc(NC(=O)c3cccnc3N3CCCOCC3)cc1)CC2 [Example 51]
5,< 7.30,O=C(Nc1c(F)cccc1F)c1cc2c(s1)-c1ccc(F)cc1N(C(=O)c1ccc(NC(=O)c3cccnc3N3CCCC(F)(F)CC3)cc1)CC2 [Example 52]
6,< 7.30,CCOCCNc1ncccc1C(=O)Nc1ccc(C(=O)N2CCc3cc(C(=O)Nc4c(F)cccc4F)sc3-c3ccc(F)cc32)cc1 [Example 54]
7,< 7.30,CCS(=O)(=O)CCN(C)c1ncccc1C(=O)Nc1ccc(C(=O)N2CCc3cc(C(=O)Nc4c(F)cccc4F)sc3-c3ccc(F)cc32)cc1 [Example 57]
8,< 7.30,CCS(=O)(=O)CCNc1ncccc1C(=O)Nc1ccc(C(=O)N2CCc3cc(C(=O)Nc4c(F)cccc4F)sc3-c3ccc(F)cc32)cc1 [Example 59]
9,7.30 to 8.00,O=C(Nc1c(F)cccc1F)c1cc2c(s1)-c1ccc(F)cc1N(C(=O)c1ccc(NC(=O)c3cccnc3C3CCOCC3)cc1)CC2 [Example 61]
10,> 8.00,O=C(Nc1c(F)cccc1F)c1cc2c(s1)-c1ccc(F)cc1N(C(=O)c1ccc(NC(=O)c3cc4c(nc3N3CC5(CCOCC5)C3)CCC4)cc1)CC2 [Example 65]
11,> 8.00,O=C(Nc1c(F)cc(F)cc1F)c1cc2c(s1)-c1ccc(F)cc1N(C(=O)c1ccc(NC(=O)c3cc4c(nc3N3CC5(CCOCC5)C3)CCC4)cc1)CC2 [Example 67]
12,7.30 to 8.00,O=C(Nc1ccc(C(=O)N2CCc3cc(-c4nc5ccccc5[nH]4)sc3-c3ccc(F)cc32)cc1)c1cc2c(nc1N1CC3(CCOCC3)C1)CCC2 [Example 68]
13,7.30 to 8.00,O=C(Nc1c(F)cc(F)cc1F)c1cc2c(s1)-c1cc(F)c(F)cc1N(C(=O)c1ccc(NC(=O)c3cc(F)cnc3N3CC4(CCOCC4)C3)cc1)CC2 [Example 71]
14,7.30 to 8.00,O=C(Nc1c(F)cccc1Cl)c1cc2c(s1)-c1c(cc(F)c(F)c1F)N(C(=O)c1ccc(NC(=O)c3cccnc3N3CC4(CCOCC4)C3)cc1)CC2 [Example 80]
15,7.30 to 8.00,O=C(Nc1c(F)cc(F)cc1Cl)c1cc2c(s1)-c1c(cc(F)c(F)c1F)N(C(=O)c1ccc(NC(=O)c3cccnc3N3CC4(CCOCC4)C3)cc1)CC2 [Example 81]
16,> 8.00,O=C(Nc1ccc(C(=O)N2CCc3c(sc(C(=O)Nc4c(F)cccc4F)c3F)-c3ccccc32)cc1)c1cccnc1N1CC2(CCOCC2)C1 [Example 88]
17,> 8.00,O=C(Nc1ccc(C(=O)N2CCc3c(sc(C(=O)Nc4c(F)cc(F)cc4F)c3F)-c3ccccc32)cc1)c1cccnc1N1CC2(CCOCC2)C1 [Example 89]

# Further lines, the compound ahead of its results:
row,Structure (SMILES),pEC50
1,O=C(Nc1ccc(C(=O)N2CCc3cc(-c4ccn[nH]4)sc3-c3ccc(F)cc32)cc1)c1cc(F)cnc1N1CC2(CCOCC2)C1 [Example 45],7.30 to 8.00
2,Cc1cnc(N2CC3(CCOCC3)C2)c(C(=O)Nc2ccc(C(=O)N3CCc4cc(-c5ccn[nH]5)sc4-c4ccc(F)cc43)cc2)c1 [Example 46],7.30 to 8.00
3,O=C(Nc1c(F)cccc1F)c1cc2c(s1)-c1ccc(F)cc1N(C(=O)c1ccc(NC(=O)c3cccnc3N3CC4CCCC4C3)cc1)CC2 (stereo not drawn) [Example 47],7.30 to 8.00
4,O=C(Nc1c(F)cccc1F)c1cc2c(s1)-c1ccc(F)cc1N(C(=O)c1ccc(NC(=O)c3cccnc3N3CC4CCC(C3)O4)cc1)CC2 [Example 50],7.30 to 8.00
5,O=C(Nc1c(F)cccc1F)c1cc2c(s1)-c1ccc(F)cc1N(C(=O)c1ccc(NC(=O)c3cccnc3N3CCOc4ccccc4C3)cc1)CC2 [Example 53],< 7.30
6,CCOCCN(C)c1ncccc1C(=O)Nc1ccc(C(=O)N2CCc3cc(C(=O)Nc4c(F)cccc4F)sc3-c3ccc(F)cc32)cc1 [Example 55],< 7.30
7,Cc1cc(CNc2ncccc2C(=O)Nc2ccc(C(=O)N3CCc4cc(C(=O)Nc5c(F)cccc5F)sc4-c4ccc(F)cc43)cc2)on1 [Example 56],< 7.30
8,CC1(CNc2ncccc2C(=O)Nc2ccc(C(=O)N3CCc4cc(C(=O)Nc5c(F)cccc5F)sc4-c4ccc(F)cc43)cc2)CCCO1 (stereo not drawn) [Example 58],< 7.30
9,O=C(Nc1c(F)cccc1F)c1cc2c(s1)-c1ccc(F)cc1N(C(=O)c1ccc(NC(=O)c3cccnc3C3=CCOCC3)cc1)CC2 [Example 60],< 7.30
10,O=C(Nc1c(F)cccc1F)c1cc2c(s1)-c1ccc(F)cc1N(C(=O)c1ccc(NC(=O)c3cccnc3-c3ccc(N4CCOCC4)cc3)cc1)CC2 [Example 62],< 7.30
11,O=C(Nc1c(F)cccc1F)c1cc2c(s1)-c1ccc(F)cc1N(C(=O)c1ccc(NC(=O)c3cccnc3-c3ccncc3)cc1)CC2 [Example 63],< 7.30
12,O=C(Nc1c(F)cccc1F)c1cc2c(s1)-c1ccc(F)cc1N(C(=O)c1ccc(NC(=O)c3cccnc3-c3c[nH]c4ccncc34)cc1)CC2 [Example 64],< 7.30
13,O=C(Nc1c(F)cc(F)cc1Cl)c1cc2c(s1)-c1ccc(F)cc1N(C(=O)c1ccc(NC(=O)c3cc4c(nc3N3CC5(CCOCC5)C3)CCC4)cc1)CC2 [Example 66],> 8.00
14,O=C(Nc1c(F)cccc1F)c1cc2c(s1)-c1c(ccc(F)c1F)N(C(=O)c1ccc(NC(=O)c3cccnc3N3CC4(CCOCC4)C3)cc1)CC2 [Example 69],7.30 to 8.00
15,O=C(Nc1ccc(C(=O)N2CCc3cc(-c4nc5ccccc5[nH]4)sc3-c3c2ccc(F)c3F)cc1)c1cccnc1N1CC2(CCOCC2)C1 [Example 70],7.30 to 8.00
16,Cc1cccc(F)c1NC(=O)c1cc2c(s1)-c1cc(F)c(F)cc1N(C(=O)c1ccc(NC(=O)c3cc(F)cnc3N3CC4(CCOCC4)C3)cc1)CC2 [Example 72],7.30 to 8.00
17,O=C(Nc1c(F)cccc1F)c1cc2c(s1)-c1cc(F)c(F)cc1N(C(=O)c1ccc(NC(=O)c3cc(F)cnc3N3CC4(CCOCC4)C3)cc1)CC2 [Example 73],7.30 to 8.00
18,O=C(Nc1c(F)cccc1Cl)c1cc2c(s1)-c1cc(F)c(F)cc1N(C(=O)c1ccc(NC(=O)c3cc(F)cnc3N3CC4(CCOCC4)C3)cc1)CC2 [Example 74],7.30 to 8.00
19,O=C(Nc1c(F)cccc1C(F)(F)F)c1cc2c(s1)-c1cc(F)c(F)cc1N(C(=O)c1ccc(NC(=O)c3cc(F)cnc3N3CC4(CCOCC4)C3)cc1)CC2 [Example 75],7.30 to 8.00
20,O=C(Nc1c(F)cccc1F)c1cc2c(s1)-c1cc(F)c(F)cc1N(C(=O)c1ccc(NC(=O)c3cccnc3N3CC4(CCOCC4)C3)cc1)CC2 [Example 76],> 8.00
21,O=C(Nc1c(F)cccc1F)c1cc2c(s1)-c1c(cc(F)c(F)c1F)N(C(=O)c1ccc(NC(=O)c3cccnc3N3CC4(CCOCC4)C3)cc1)CC2 [Example 78],> 8.00
22,O=C(Nc1c(F)cc(F)cc1F)c1cc2c(s1)-c1c(cc(F)c(F)c1F)N(C(=O)c1ccc(NC(=O)c3cccnc3N3CC4(CCOCC4)C3)cc1)CC2 [Example 79],7.30 to 8.00
23,O=C(Nc1ccc(C(=O)N2CCc3cc(-c4nc5ccccc5[nH]4)sc3-c3ccc(Cl)cc32)cc1)c1cccnc1N1CC2(CCOCC2)C1 [Example 82],7.30 to 8.00
24,O=C(Nc1c(F)cccc1F)c1cc2c(s1)-c1ccc(Cl)cc1N(C(=O)c1ccc(NC(=O)c3cccnc3N3CC4(CCOCC4)C3)cc1)CC2 [Example 83],> 8.00
25,O=C(Nc1c(F)cc(F)cc1Cl)c1cc2c(s1)-c1ccc(Cl)cc1N(C(=O)c1ccc(NC(=O)c3cccnc3N3CC4(CCOCC4)C3)cc1)CC2 [Example 84],7.30 to 8.00
26,Cc1cccc(F)c1NC(=O)c1cc2c(s1)-c1ccc(C(F)(F)F)cc1N(C(=O)c1ccc(NC(=O)c3cccnc3N3CC4(CCOCC4)C3)cc1)CC2 [Example 85],< 7.30
27,O=C(Nc1ccc(C(=O)N2CCc3cc(-c4nc5ccccc5[nH]4)sc3-c3ccc(C(F)(F)F)cc32)cc1)c1cccnc1N1CC2(CCOCC2)C1 [Example 86],< 7.30
28,O=C(Nc1c(F)cccc1F)c1cc2c(s1)-c1cc(C(F)(F)F)ccc1N(C(=O)c1ccc(NC(=O)c3cccnc3N3CC4(CCOCC4)C3)cc1)CC2 [Example 87],7.30 to 8.00
